Test results taken from patent publication US20240122180A1, “FUNGICIDAL HALOMETHYL KETONES AND HYDRATES AND THEIR MIXTURES” (FMC Corporation, priority 2020, published 2024).
Marks after values point to notes of the source that are not given here.

Tests used:
Assay type in all cases: in vivo
[1] = system: Blumeria graminis f. sp. tritici (the causal agent of wheat powdery mildew); assay: Test E: preventive spray on wheat seedlings, visual disease rating (100 = 100% control; * 50 ppm, ** 10 ppm, *** 250 ppm); conditions: 100 = 100% disease control; for pest or weed control at 250 ppm / Test E disease control rating: 250 ppm test suspension
From the text: (§1) General protocol for preparing test suspensions for Tests A-E: the test compounds were first dissolved in acetone in an amount equal to 3% of the final volume and then suspended at the desired concentration (in ppm) in acetone and purified water (50/50 mix by volume) containing 250 ppm of the surfactant […] (polyhydric alcohol esters). The resulting test suspensions were then used in Tests A-E.
The test suspension was sprayed to the point of run-off on wheat seedlings. The following day the seedlings were inoculated with a spore dust of Blumeria graminis f. sp. tritici, (also known as Erysiphe graminis f. sp. tritici, the causal agent of wheat powdery mildew) and incubated in a growth chamber at 20° C. for 8 days, after which time visual disease ratings were made.
(§2) Results for Tests A-E are given in Table A. In the Table, a rating of 100 indicates 100% disease control and a rating of 0 indicates no disease control (relative to the controls). An asterisk “*” or a double asterisk “**” or a triple asterisk “***” next to the rating value indicates a 50 ppm, 10 ppm and 250 ppm test suspension was used, respectively. A dash (-) indicates the compound was not tested.

[2] = system: Puccinia recondita f. sp. tritici (the causal agent of wheat leaf rust); assay: Test B: preventive spray on wheat seedlings, disease rating (100 = 100% control; * 50 ppm, ** 10 ppm, *** 250 ppm); conditions: 100 = 100% disease control
Procedure, shortened: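 Wheat seedlings sprayed to run-off with compound in acetone/water (50/50) containing 250 ppm PEG400, inoculated next day with Puccinia recondita f. sp. tritici spores. Held 24 h saturated at 20° C, then 6 days at 20° C; disease control rated 0–100 relative to controls.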

[3] = system: Zymoseptoria tritici (the causal agent of wheat leaf blotch); assay: Test D: preventive spray on wheat seedlings, disease rating (100 = 100% control; * 50 ppm, ** 10 ppm, *** 250 ppm); conditions: 250 ppm test suspension, 100 = 100% disease control; for pest or weed control at 250 ppm: Zymoseptoria tritici
From the text: as §1
The test solution was sprayed to the point of run-off on wheat seedlings. The following day the seedlings were inoculated with a spore suspension of Zymoseptoria tritici (the causal agent of wheat leaf blotch) and incubated in a saturated atmosphere at 24° C. for 48 h, and then moved to a growth chamber at 20° C. for 17 days, after which time disease ratings were made.
as §2

[4] = system: Phakopsora pachyrhizi (the causal agent of Asian soybean rust); assay: Test A: preventive spray on soybean seedlings, visual disease rating (100 = 100% control; * 50 ppm, ** 10 ppm, *** 250 ppm); conditions: 100 = 100% disease control
Procedure, shortened: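 Soybean seedlings sprayed to run-off with compound suspended in acetone/water with 250 ppm PEG400 surfactant, inoculated next day with P. pachyrhizi spores. Kept 24 h saturated at 22 °C, then 8 days at 22 °C before visual rating of disease control (0-100) relative to controls.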

[5] = system: Phakopsora pachyrhizi (the causal agent of Asian soybean rust); assay: Test F: Compound 32 or 64 alone and in mixtures on soybean seedlings, observed (Obsd) and Colby expected (Exp) disease control; conditions: for pest or weed control at 45.86 ppm: pyraclostrobin 45.860 ppm alone; for pest or weed control at 137.503 ppm: pyraclostrobin 137.503 ppm alone; for pest or weed control at 486.921 ppm: tebuconazole 486.921 ppm alone; for pest or weed control at 841.166 ppm: tebuconazole 841.166 ppm alone; for pest or weed control at 20.511 ppm: trifloxystrobin 20.511 ppm alone; for pest or weed control at 35.31 ppm: trifloxystrobin 35.310 ppm alone
From the text: The general protocol for preparing test compositions for Test F was as follows: Compound 32, Compound 64, azoxystrobin, benzovindiflupyr, bixafen, chlorothalonil, cyproconazole, epoxiconazole, fenpropidin, fenpropimorph, fluindapyr, flutriafol, fluxapyroxad, metominostrobin, picoxystrobin, prothioconazole, pydiflumetofen, pyraclostrobin, tebuconazole and trifloxystrobin were obtained as unformulated, technical-grade materials. Copper hydroxide and mancozeb was obtained as a formulated product marketed under the trademarks KOCIDE 3000 and MANZATE, respectively. Unformulated materials were first dissolved in acetone and then suspended at the desired concentration (in ppm) in acetone and purified water (50/50 mix by volume) containing 250 ppm of the surfactant Trem® 014 (polyhydric alcohol esters). Formulated materials were dispersed in sufficient water to give the desired concentration, and neither organic solvent nor surfactant was added to the suspension. The resulting test mixtures were then used in Test F. The tests were run on four individual plants and the results reported as the mean average of the four plants.
The presence of a synergistic effect between two active ingredients was established with the aid of the Colby equation (see Colby, S. R. “Calculating Synergistic and Antagonistic Responses of Herbicide Combinations”, Weeds, (1967), 15, 20-22):
Using the method of Colby, the presence of a synergistic interaction between two active ingredients is established by first calculating the predicted activity, p, of the mixture based on activities of the two components applied alone. If p is lower than the experimentally established effect, synergism has occurred. In the equation above, A is the fungicidal activity in percentage control of one component applied alone at rate x. The B term is the fungicidal activity in percentage control of the second component applied at rate y. The equation estimates p, the expected fungicidal activity of the mixture of A at rate x with B at rate y if their effects are strictly additive and no interaction has occurred.
The test mixture was sprayed to the point of run-off on soybean seedlings. The following day the seedlings were inoculated with a spore suspension of Phakopsora pachyrhizi (the causal agent of Asian soybean rust) and incubated in a saturated atmosphere at 22° C. for 24 h and then moved to a growth chamber at 22° C. for 8 days, after which time visual disease ratings were made.
Results for Test F are given in Tables B-1 through I-1 for Compound 32 and Tables B-2 through I-2 for Compound 64. Each table corresponds to a set of evaluations performed together at the same time. In each table, a rating of 100 indicates 100% disease control and a rating of 0 indicates no disease control (relative to the controls). Columns labeled “Obsd” indicate the average of results observed from test run on four individual plants. Columns labeled “Exp” indicate the expected value for each treatment mixture using the Colby equation.

[6] = Blumeria graminis, wheat seedlings
[7] = Puccinia recondita, 50 ppm test suspension, wheat seedlings
[8] = 10 ppm test suspension, 0 = no control
[9] = 50 ppm test suspension, 0 = no control
[10] = 10 ppm test suspension, soybean seedlings
[11] = 10 ppm test suspension, wheat seedlings
[12] = Phakopsora pachyrhizi, Table H-1
[13] = Phakopsora pachyrhizi, Table H-2
[14] = Phakopsora pachyrhizi, Table D-1
[15] = Phakopsora pachyrhizi, Table D-2
[16] = Phakopsora pachyrhizi, Table E-2

CCOC(=O)c1cnn(Cc2ccc(OCC(O)(O)C(F)(F)F)cc2)c1 [Compound 1, ethyl 1-[[4-(3,3,3-trifluoro-2,2-dihydroxypropoxy)phenyl]methyl]-1H-pyrazole-4-carboxylate]
pest or weed control at 250 ppm [1, 6]: 81% | pest or weed control at 250 ppm ([2]; Puccinia recondita, 250 ppm test suspension, wheat seedlings): 91% | pest or weed control at 250 ppm ([3]; wheat seedlings): 97%

COC(=O)c1ccc(OCC(O)(O)C(F)(F)F)cc1 [Compound 229, methyl 4-(3,3,3-trifluoro-2,2-dihydroxypropoxy)phenylcarboxylate]
pest or weed control at 250 ppm [1, 6]: 99% | pest or weed control at 50 ppm [2, 7]: 100% | pest or weed control at 250 ppm ([3]; wheat seedlings): 96%

CCOC(=O)c1cnn(Cc2ccc(OCC(O)(O)C(F)(F)F)c(F)c2)c1 [Compound 264]
Test A disease control rating [4, 8]: 99% | Test E disease control rating ([1]; 0 = no control): 96*** % | Test B disease control rating [2, 8]: 80% | Test D disease control rating ([3]; 0 = no control): 95*** %

CCOC(=O)c1cnn(Cc2ccc(OCC(O)(O)C(F)(F)F)c(Cl)c2)c1 [Compound 459]
Test A disease control rating [4, 9]: 100% | Test E disease control rating ([1]; 0 = no control): 0*** % | Test B disease control rating [2, 9]: 97% | Test D disease control rating ([3]; 0 = no control): 37*** %

CCS(=O)(=O)Cc1ccc(OCC(O)(O)C(F)(F)F)cc1 [compound 29]
Test A disease control rating [4, 10]: 84% | Test E disease control rating ([1]; wheat seedlings): 79*** % | Test B disease control rating [2, 11]: 28% | Test D disease control rating ([3]; wheat seedlings): 0*** %

CCOC(=O)c1cnn(Cc2ccc(OCC3(C(F)(F)F)OCCO3)cn2)c1 [compound 124]
pest or weed control at 50 ppm ([1]; Blumeria graminis, 50 ppm test suspension, wheat seedlings): 98% | pest or weed control at 50 ppm [2, 7]: 0% | pest or weed control at 250 ppm ([3]; wheat seedlings): 92%

CCO/C(=C\Oc1ccc(Cn2cc(C(=O)OCC(=O)c3ccccc3)cn2)cc1)C(F)(F)F [compound 244]
Test A disease control rating [4, 10]: 100% | Test E disease control rating ([1]; wheat seedlings): 0*** % | Test B disease control rating [2, 11]: 0% | Test D disease control rating ([3]; wheat seedlings): 0*** %

O=[N+]([O-])c1ccc(OCC(O)(O)C(F)(F)F)cc1 [compound 280]
Test A disease control rating [4, 9]: 100% | Test E disease control rating ([1]; 0 = no control): 99*** % | Test B disease control rating [2, 9]: 100% | Test D disease control rating ([3]; 0 = no control): 99*** %

CCOC(=O)c1cnn(COc2cccc(OCC(O)(O)C(F)(F)F)c2)c1 [compound 320]
pest or weed control at 10 ppm ([4]; Phakopsora pachyrhizi, 10 ppm test suspension, 0 = no control): 89% | pest or weed control at 250 ppm ([1]; Blumeria graminis, 0 = no control): 91% | pest or weed control at 10 ppm ([2]; Puccinia recondita, 10 ppm test suspension, 0 = no control): 68% | pest or weed control at 250 ppm ([3]; 0 = no control): 81%

CC(=O)N1CC(c2ccc(OCC3(C(F)(F)F)OCCO3)cc2)C1 [compound 372]
Test A disease control rating [4, 9]: 97% | Test E disease control rating ([1]; 0 = no control): 99*** % | Test B disease control rating [2, 9]: 28% | Test D disease control rating ([3]; 0 = no control): 99*** %

CCOC(=O)c1cnn(Cc2ccc(O/C=C(\OCC)C(F)(F)F)c(I)c2)c1 [compound 374]
Test A disease control rating [4, 9]: 0% | Test E disease control rating ([1]; 0 = no control): 76*** % | Test B disease control rating [2, 9]: 0% | Test D disease control rating ([3]; 0 = no control): 0*** %

CCOC(=O)c1cnn(Cc2ccc(N(C#N)CC(O)(O)C(F)(F)F)cc2)c1 [compound 381]
Test A disease control rating [4, 8]: 25% | Test E disease control rating ([1]; 0 = no control): 69*** % | Test B disease control rating [2, 8]: 28% | Test D disease control rating ([3]; 0 = no control): 0*** %

CC(=O)N1CC(c2ccc(OCC(O)(O)C(F)(F)F)cc2)C1 [compound 384]
Test A disease control rating [4, 9]: 99% | Test E disease control rating ([1]; 0 = no control): 87*** % | Test B disease control rating [2, 9]: 83% | Test D disease control rating ([3]; 0 = no control): 48*** %

CCOC(=COc1ccc(NC(=O)c2ccccc2F)cc1)C(F)(F)F [compound 461]
Test A disease control rating [4, 9]: 0% | Test E disease control rating ([1]; 0 = no control): 69*** % | Test B disease control rating [2, 9]: 0% | Test D disease control rating ([3]; 0 = no control): 53*** %

COC(=O)N(OC)c1ccccc1COc1ccn(-c2ccc(Cl)cc2)n1 [pyraclostrobin]
pest or weed control at 45.86 ppm [5, 12]: 35% | pest or weed control at 45.86 ppm [5, 13]: 35% | pest or weed control at 137.503 ppm [5, 12]: 45% | pest or weed control at 137.503 ppm [5, 13]: 45%

CC(C)(C)C(O)(CCc1ccc(Cl)cc1)Cn1cncn1 (centres unmarked) [tebuconazole]
pest or weed control at 486.921 ppm [5, 14]: 30% | pest or weed control at 486.921 ppm [5, 15]: 30% | pest or weed control at 841.166 ppm [5, 14]: 55% | pest or weed control at 841.166 ppm [5, 15]: 55%

CON=C(C(=O)OC)c1ccccc1CON=C(C)c1cccc(C(F)(F)F)c1 [trifloxystrobin]
pest or weed control at 20.511 ppm [5, 16]: 69% | pest or weed control at 35.31 ppm [5, 16]: 86% | pest or weed control at 20.511 ppm ([5]; Table E-1): 69% | pest or weed control at 35.31 ppm ([5]; Table E-1): 86%
